{"source": "patent US10772944B2", "about": "“Bacterial ghosts for the treatment of cancer” (BIRD-C GMBH, priority 2016, dated 2020)", "test_system": "CT26 mouse colorectal carcinoma", "details": "one cycle: BGs 4x10^8 at D4, oxaliplatin 6 mg/kg i.p. at D4, D6; harvest D18", "experimental": "Treatment of mice started three days after tumor inoculation and comprised of either one or two cycles of BGs administration combined with either two or four drug administrations, respectively. Furthermore, part of mice was treated with either two or four drug administrations without the extra addition of BGs. Survival and animal behavior were monitored until the section day; animal weights were documented once per week. Tumor presence and burden were assessed at the section day including organ screening and photo documentation.\nThe mice were inoculated intraperitoneally (in lower left quadrant) with 1×10^5 cells of CT26 mouse colorectal carcinoma cells and randomly distributed into the seven groups (D1).\nThree days after tumor inoculation (D4) the first group of animals (Group #1) received 100 μl of 5% glucose solution for injection (solvent) administered intraperitoneally at the same place as used for tumor inoculation.\nMice from Group #2.1 were injected intraperitoneally at D4 and D6 (five days after tumor inoculation) with 6 mg/kg oxaliplatin reconstituted in 100 μl of 5% glucose solution for injection at the same place as used for tumor inoculation. […]", "data": [{"smiles": "O=C1[O][Pt]2([NH][C@@H]3CCCC[C@H]3[NH]2)[O]C1=O", "note": "[oxaliplatin]", "values": [{"measurement": "tumor burden (weight of collected tumor tissues) versus control", "value": "tumor mass reduction detected"}]}]}
